From patent US20240173432A1, “Compositions and Methods for Treatment of Myotonic Dystrophy Type 1 with CRISPR/SluCas9” (Vertex Pharmaceuticals Incorporated, priority 2021, published 2024)

Tests used:
[1] = tested on: 3′ UTR of the human DMPK gene; test: Single-cut screening: indel editing efficiency by Sanger sequencing and ICE analysis in primary DM1 patient myoblasts; format: cell-based; settings: vehicle-treated samples; for indel efficiency (Sanger sequencing and ICE analysis): single-cut, SluCas9 RNP, 72 hrs post nucleofection, wild-type allele; for Indel efficiency: single SluCas9 sgRNA RNP in primary DM1 patient myoblasts, Sanger sequencing and ICE analysis
How it was run: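 Indels were estimated by ICE from Sanger chromatograms of PCR amplicons covering the DMPK 3′ UTR wild-type allele, using only vehicle-treated samples; sgRNAs with R2<0.9 are flagged. Samples came from primary DM1 patient myoblasts (2 × 10^5) harvested 72 h after nucleofection with 30 pmol SluCas9 and 90 pmol single sgRNA RNP.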

[2] = tested on: CAG foci in primary DM1 patient myoblasts; test: Single-cut screening: CAG foci staining; format: cell-based, human; settings: single sgRNA; for % of CAG foci positive nuclei (DNA-PKi): DNA-PKi treated
How it was run: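 Primary DM1 patient myoblasts were PFA-fixed and hybridized with […] (1 ng/μL, 15 min at 80° C) in 30% formamide/2×SSC, followed by anti-MBNL1 immunostaining and Hoechst counterstain. CAG RNA foci were quantified by high-content confocal imaging after single-cut SuCas9 sgRNA editing.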

Row | Substance | indel efficiency (Sanger sequencing and ICE analysis) [1] | % of CAG foci positive nuclei (DNA-PKi) [2] | % of CAG foci positive nuclei (Vehicle) [2] | Indel efficiency [1]
1 | ATGGGCAAACTGCAGGCCTGGG (listed as DNA, chemistry not fully specified) [SluD14] | high editing IN4DEL efficiency | 3.96% | 6.7% | –
2 | GCCCCGTTGGAAGACTGAGTGC (listed as DNA, chemistry not fully specified) [SluU08] | high editing IN4DEL efficiency | 1.61% | 2.21% | 87%
3 | gggcTCGAAGGGTCCTTGTAGC (as printed in the source, key not given here) [SluU64] | high editing IN4DEL efficiency | 2.58% | 1.23% | 59%
4 | ggggcTCGAAGGGTCCTTGTAG (as printed in the source, key not given here) [SluU63] | high editing IN4DEL efficiency | 5.49% | 3.29% | –
